Data taken from ChEMBL document CHEMBL6115029, “Discovery of Daraxonrasib (RMC-6236), a Potent and Orally Bioavailable RAS(ON) Multi-selective, Noncovalent Tri-complex Inhibitor for the Treatment of Patients with Multiple RAS-Addicted Cancers” (J Med Chem, 2025).
Activity calls are given as the source filed them. The calls are words filed in the database; no cut-off is given here.

Key:
[1] = Inhibition of 6His-tagged KRAS G12V mutant(1 to 169 residues)/GST-tagged GMPPNP-bound BRAF RBD (155 to 229 reisudes)/Cyclophilin A (unknown origin) tri-complex protein-protein interaction incubated for 3 hrs by TR-FERT based disruption assay; set-up: species or system Homo sapiens
[2] = Inhibition of 6His-tagged KRAS G12D mutant(1 to 169 residues)/GST-tagged GMPPNP-bound BRAF RBD (155 to 229 reisudes)/Cyclophilin A (unknown origin) tri-complex protein-protein interaction incubated for 3 hrs by TR-FERT based disruption assay; set-up: species or system Homo sapiens
[3] = Inhibition of 6His-tagged KRAS G12C mutant(1 to 169 residues)/GST-tagged GMPPNP-bound BRAF RBD (155 to 229 reisudes)/Cyclophilin A (unknown origin) tri-complex protein-protein interaction incubated for 3 hrs by TR-FERT based disruption assay; set-up: species or system Homo sapiens
[4] = Inhibition of 6His-tagged wildtype KRAS (1 to 169 residues)/GST-tagged GMPPNP-bound BRAF RBD (155 to 229 reisudes)/Cyclophilin A (unknown origin) tri-complex protein-protein interaction incubated for 3 hrs by TR-FERT based disruption assay; set-up: species or system Homo sapiens
CAPAN-1 = assay: Cytotoxicity against human CAPAN-1 cells harboring KRAS G12V mutant cultured as 2D cells assessed as reduction in cell viability incubated for 120 hrs by CellTiter-Glo luminescence assay; format: functional, cell-based; conditions: CAPAN-1, 120 h
NCI-H358 = assay: Cytotoxicity against human NCI-H358 cells harboring KRAS G12C mutant cultured as 2D cells assessed as reduction in cell viability incubated for 120 hrs by CellTiter-Glo luminescence assay; format: functional, cell-based; conditions: NCI-H358, 120 h
NCI-H1975 = assay: Cytotoxicity against human NCI-H1975 cells harboring wildtype KRAS cultured as 2D cells assessed as reduction in cell viability incubated for 120 hrs by CellTiter-Glo luminescence assay; format: functional, cell-based; conditions: NCI-H1975, 120 h
A-375 = assay: Cytotoxicity against human A-375 cells assessed as reduction in cell viability incubated for 120 hrs by CellTiter-Glo luminescence assay; format: functional, cell-based; conditions: A-375, 120 h
[5] = Half-life in female BALB/c mouse at 1 mg/kg, iv measured after 24 hrs by LC-MS/MS analysis; format: ADME, organism-based; conditions: in vivo
[6] = Oral bioavailability in female BALB/c mouse blood at 10 mg/kg measured after 24 hrs by LC-MS/MS analysis; format: ADME, organism-based
[7] = Oral bioavailability in female BALB/c mouse plasma at 10 mg/kg measured after 24 hrs by LC-MS/MS analysis; format: ADME, organism-based
[8] = Volume of distribution at steady state in male Sprague-Dawley rat at 1 mg/kg, iv measured after 24 hrs by LC-MS/MS analysis; format: ADME, organism-based; conditions: in vivo, read-out: Vdss
[9] = Half-life in female BALB/c mouse at 10 mg/kg, po measured after 24 hrs by LC-MS/MS analysis; format: ADME, organism-based; conditions: in vivo
[10] = Half-life in male Sprague-Dawley rat at 60 mg/kg, po measured after 24 hrs by LC-MS/MS analysis; format: ADME, organism-based; conditions: in vivo
[11] = Oral bioavailability in male Sprague-Dawley rat at 60 mg/kg measured after 24 hrs by LC-MS/MS analysis; format: ADME, organism-based; conditions: in vivo
[12] = Tmax in male Beagle dog at 5 mg/kg, po measured after 24 hrs by LC-MS/MS analysis; format: ADME, organism-based, Canis lupus familiaris; conditions: in vivo
[13] = Half-life in male Beagle dog at 5 mg/kg, po measured after 24 hrs by LC-MS/MS analysis; format: ADME, organism-based, Canis lupus familiaris; conditions: in vivo
[14] = Oral bioavailability in male Beagle dog at 5 mg/kg measured after 24 hrs by LC-MS/MS analysis; format: ADME, organism-based, Canis lupus familiaris; conditions: in vivo
[15] = Clearance in male cynomolgus monkey at 1 mg/kg, iv measured after 24 hrs by LC-MS/MS analysis; format: ADME, organism-based, Macaca fascicularis; conditions: in vivo
[16] = Oral bioavailability in male cynomolgus monkey at 10 mg/kg measured after 24 hrs by LC-MS/MS analysis; format: ADME, organism-based, Macaca fascicularis; conditions: in vivo
[17] = Ratio of drug concentration in mouse blood to plasma at 0.1 uM measured upto 120 mins by LC-MS/MS analysis; format: ADME, cell-free
[18] = Ratio of drug concentration in mouse blood to plasma at 10 uM measured upto 120 mins by LC-MS/MS analysis; format: ADME, cell-free
PSN1 [19] = assay: Inhibition of ERK1/2 phosphorylation in human PSN1 cells harboring KRAS G12R mutant incubated for 4 hrs by AlphaLISA assay; format: cell-based
HCT-116 = assay: Inhibition of ERK1/2 phosphorylation in human HCT-116 cells harboring KRAS G13D mutant incubated for 4 hrs by AlphaLISA assay; format: cell-based
Hs766T = assay: Inhibition of ERK1/2 phosphorylation in human Hs766T cells harboring […] mutant incubated for 4 hrs by AlphaLISA assay; format: cell-based
PSN1 [20] = assay: Cytotoxicity against human PSN1 cells harboring KRAS G12R mutant cultured as 2D cells assessed as inhibition of cell proliferation incubated for 120 hrs by CellTiter-Glo luminescence assay; format: functional, cell-based
SK-MEL-30 = assay: Cytotoxicity against human SK-MEL-30 cells harboring […] mutant cultured as 2D cells assessed as inhibition of cell proliferation incubated for 120 hrs by CellTiter-Glo luminescence assay; format: functional, cell-based
[21] = In vivo inhibition of MAPK signaling pathway in female BALB/c nude mouse xenografted with human MIA PaCa-2 cells harboring KRAS G12C/G12C mutant assessed as reduction in DUSP6 mRNA level in tumor at 10 mg/kg, po administered as single dose and measured after 8 hrs by qPCR analysis relative to control; format: functional
[22] = Toxicity in female BALB/c nude mouse xenografted with human MIA PaCa-2 cells harboring KRAS G12C/G12C mutant assessed as effect on body weight at 25 mg/kg, po administered once daily for 28 days; format: organism-based; conditions: in vivo, 672 h, time 28 day
MIA PaCa-2 = assay: Antitumor activity against human MIA PaCa-2 cells harboring KRAS G12C/G12C mutant xenografted in female BALB/c mouse model assessed as tumor regression at 25 mg/kg, po administered once daily for 28 days; format: functional, organism-based; conditions: time 28.0 day
HPAF-II = assay: Antitumor activity against human HPAF-II cells harboring wildtype KRAS/KRAS G12D mutant xenografted in female BALB/c mouse model assessed as tumor regression at 25 mg/kg, po administered once daily for 28 days; format: functional, organism-based; conditions: time 28.0 day
NCI-H1373 = assay: Antitumor activity against human NCI-H1373 cells harboring KRAS G12C/KRAS G12C mutant xenografted in female BALB/c nude mouse assessed as tumor regression at 25 mg/kg, po administered once daily for 28 days; format: functional, organism-based; conditions: time 28.0 day
[23] = molecular target: Voltage-gated inwardly rectifying potassium channel KCNH2 (Homo sapiens, UniProt Q12809); assay: Inhibition of human ERG; format: toxicity
Voltage-gated inwardly rectifying potassium channel KCNH2, sequence (Q12809 whole entry): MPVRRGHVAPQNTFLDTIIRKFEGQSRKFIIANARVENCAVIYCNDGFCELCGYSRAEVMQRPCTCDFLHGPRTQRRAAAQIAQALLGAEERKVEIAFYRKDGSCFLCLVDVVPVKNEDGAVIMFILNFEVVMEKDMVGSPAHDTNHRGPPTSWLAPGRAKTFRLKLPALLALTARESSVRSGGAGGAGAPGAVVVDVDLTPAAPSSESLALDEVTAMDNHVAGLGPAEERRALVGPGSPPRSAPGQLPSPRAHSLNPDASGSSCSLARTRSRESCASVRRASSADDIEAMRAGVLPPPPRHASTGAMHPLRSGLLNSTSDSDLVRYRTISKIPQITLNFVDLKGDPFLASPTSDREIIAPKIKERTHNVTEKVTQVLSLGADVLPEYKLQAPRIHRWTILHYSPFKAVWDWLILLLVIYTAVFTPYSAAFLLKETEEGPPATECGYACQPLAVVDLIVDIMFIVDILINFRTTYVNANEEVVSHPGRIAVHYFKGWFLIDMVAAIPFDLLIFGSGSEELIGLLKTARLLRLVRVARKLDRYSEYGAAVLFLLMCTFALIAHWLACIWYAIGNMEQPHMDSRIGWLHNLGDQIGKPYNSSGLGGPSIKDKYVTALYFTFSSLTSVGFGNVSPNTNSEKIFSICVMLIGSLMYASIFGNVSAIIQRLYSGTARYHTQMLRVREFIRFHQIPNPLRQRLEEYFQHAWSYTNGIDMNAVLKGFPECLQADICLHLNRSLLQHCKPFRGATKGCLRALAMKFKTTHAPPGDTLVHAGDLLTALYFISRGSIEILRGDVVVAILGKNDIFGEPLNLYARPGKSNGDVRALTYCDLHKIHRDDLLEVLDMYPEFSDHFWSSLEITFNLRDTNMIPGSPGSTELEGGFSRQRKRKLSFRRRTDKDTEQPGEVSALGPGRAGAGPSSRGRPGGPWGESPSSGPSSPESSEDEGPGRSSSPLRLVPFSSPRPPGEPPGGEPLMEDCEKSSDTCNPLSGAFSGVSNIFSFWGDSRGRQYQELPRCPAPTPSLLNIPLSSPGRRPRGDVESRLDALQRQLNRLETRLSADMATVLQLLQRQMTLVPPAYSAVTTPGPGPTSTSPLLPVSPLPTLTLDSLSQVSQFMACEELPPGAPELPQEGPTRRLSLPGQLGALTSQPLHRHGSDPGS

[24] = molecular target: Voltage-dependent L-type calcium channel subunit alpha-1C (Homo sapiens, UniProt Q13936); assay: Inhibition of human Cav1.2; format: toxicity
Voltage-dependent L-type calcium channel subunit alpha-1C, sequence (Q13936 whole entry): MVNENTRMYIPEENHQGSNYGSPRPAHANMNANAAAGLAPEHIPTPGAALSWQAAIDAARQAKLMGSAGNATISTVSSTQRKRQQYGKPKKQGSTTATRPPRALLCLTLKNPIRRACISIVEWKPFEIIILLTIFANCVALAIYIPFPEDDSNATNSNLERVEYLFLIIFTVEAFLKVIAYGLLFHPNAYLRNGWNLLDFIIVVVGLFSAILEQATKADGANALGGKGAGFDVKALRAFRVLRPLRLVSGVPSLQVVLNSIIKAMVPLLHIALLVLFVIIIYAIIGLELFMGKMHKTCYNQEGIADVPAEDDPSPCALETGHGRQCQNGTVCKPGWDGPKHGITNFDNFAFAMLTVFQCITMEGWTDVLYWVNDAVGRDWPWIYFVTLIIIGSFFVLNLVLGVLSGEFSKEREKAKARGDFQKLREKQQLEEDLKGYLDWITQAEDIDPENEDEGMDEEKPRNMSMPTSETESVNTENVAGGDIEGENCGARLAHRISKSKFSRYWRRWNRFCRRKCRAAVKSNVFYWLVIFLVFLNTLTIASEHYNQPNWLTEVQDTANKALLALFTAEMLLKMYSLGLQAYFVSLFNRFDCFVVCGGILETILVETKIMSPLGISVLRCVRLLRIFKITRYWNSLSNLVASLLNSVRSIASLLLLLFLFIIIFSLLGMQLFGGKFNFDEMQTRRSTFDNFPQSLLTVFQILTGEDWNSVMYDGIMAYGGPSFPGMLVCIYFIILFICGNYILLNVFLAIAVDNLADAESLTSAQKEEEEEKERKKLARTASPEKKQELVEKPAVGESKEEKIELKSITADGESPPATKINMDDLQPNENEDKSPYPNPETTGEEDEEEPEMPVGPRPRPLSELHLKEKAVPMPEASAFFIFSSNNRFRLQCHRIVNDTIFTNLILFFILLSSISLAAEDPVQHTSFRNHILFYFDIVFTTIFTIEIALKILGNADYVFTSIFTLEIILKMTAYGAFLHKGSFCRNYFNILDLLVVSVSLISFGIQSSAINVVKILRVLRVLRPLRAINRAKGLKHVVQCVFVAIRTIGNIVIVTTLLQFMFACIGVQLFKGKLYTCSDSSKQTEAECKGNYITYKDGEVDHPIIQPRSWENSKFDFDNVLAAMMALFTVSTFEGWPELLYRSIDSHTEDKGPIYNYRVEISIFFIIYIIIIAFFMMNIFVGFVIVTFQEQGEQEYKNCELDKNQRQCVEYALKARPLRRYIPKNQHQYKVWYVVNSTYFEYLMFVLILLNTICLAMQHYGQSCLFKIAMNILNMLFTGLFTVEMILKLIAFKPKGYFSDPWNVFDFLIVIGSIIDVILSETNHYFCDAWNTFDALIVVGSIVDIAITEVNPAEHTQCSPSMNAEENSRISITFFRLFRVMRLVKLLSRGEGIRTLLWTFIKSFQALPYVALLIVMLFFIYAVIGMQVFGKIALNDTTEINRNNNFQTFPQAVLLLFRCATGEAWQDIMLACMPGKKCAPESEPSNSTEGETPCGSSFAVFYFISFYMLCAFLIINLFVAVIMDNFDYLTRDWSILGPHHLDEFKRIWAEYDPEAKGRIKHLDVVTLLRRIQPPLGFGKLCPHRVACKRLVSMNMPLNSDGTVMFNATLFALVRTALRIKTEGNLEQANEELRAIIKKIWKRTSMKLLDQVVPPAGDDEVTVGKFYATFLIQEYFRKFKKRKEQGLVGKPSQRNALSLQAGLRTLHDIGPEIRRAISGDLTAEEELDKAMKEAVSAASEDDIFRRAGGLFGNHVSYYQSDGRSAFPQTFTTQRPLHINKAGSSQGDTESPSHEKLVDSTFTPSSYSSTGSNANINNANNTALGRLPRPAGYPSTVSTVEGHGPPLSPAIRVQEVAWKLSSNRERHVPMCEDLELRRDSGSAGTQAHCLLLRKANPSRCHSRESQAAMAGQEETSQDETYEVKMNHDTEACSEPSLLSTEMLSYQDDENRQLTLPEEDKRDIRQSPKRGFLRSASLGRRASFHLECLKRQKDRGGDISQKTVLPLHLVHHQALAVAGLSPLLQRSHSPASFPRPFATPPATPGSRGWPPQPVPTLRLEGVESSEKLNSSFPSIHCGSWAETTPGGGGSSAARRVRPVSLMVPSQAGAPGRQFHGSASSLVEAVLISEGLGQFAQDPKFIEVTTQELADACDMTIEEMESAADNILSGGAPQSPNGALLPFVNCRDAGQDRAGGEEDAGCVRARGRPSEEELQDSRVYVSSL

[25] = molecular target: Sodium channel protein type 5 subunit alpha (Homo sapiens, UniProt Q14524); assay: Inhibition of human Nav1.5; format: toxicity
[26] = Mutagenicity in Salmonella typhimurium by Ames test; format: toxicity; conditions: salmonella enterica subsp. enterica serovar typhimurium
[27] = Genotoxicity in Salmonella typhimurium by Ames test; format: toxicity; conditions: salmonella enterica subsp. enterica serovar typhimurium
[28] = Toxicity in human PBL cells in absence of rat S9 fraction by micronucleus assay; format: cell-based

Compound: CCn1c(-c2cc(N3CCN(C)CC3)cnc2[C@H](C)OC)c2c3cc(ccc31)-c1csc(n1)C[C@H](NC(=O)[C@H]1C[C@@H]1C)C(=O)N1CCC[C@H](N1)C(=O)OCC(C)(C)C2
- IC50 [1]: 48 nM
- IC50 [2]: 229 nM
- IC50 [3]: 35 nM
- IC50 [4]: 92 nM
- EC50 (CAPAN-1): 1.3 nM
- EC50 (NCI-H358): 1 nM
- EC50 (NCI-H1975): 1.4 nM
- EC50 (A-375): 7210 nM
- half-life [5]: 2.2 h
- bioavailability [6]: 33%
- bioavailability [7]: 52%
- Vd [8]: 1.9 L/kg
- half-life [9]: 2.4 h
- half-life [10]: 2.8 h
- bioavailability [11]: 27%
- Tmax [12]: 0.7 h
- half-life [13]: 5.3 h
- bioavailability [14]: 33%
- clearance [15]: 8.33 mL/min/kg
- bioavailability [16]: 24%
- blood plasma ratio at 2 h, 0.1 µM [17]: 4.2
- blood plasma ratio at 2 h, 10 µM [18]: 1.1
- inhibition (PSN1 [19]): Active
- inhibition (HCT-116): Active
- inhibition (Hs766T): Active
- Activity (PSN1 [20]): Active
- Activity (SK-MEL-30): Active
- inhibition in vivo at 10 mg/kg [21]: 95%
- Activity [22]: Non-toxic
- Activity (MIA PaCa-2): Active
- Activity (HPAF-II): Active
- Activity (NCI-H1373): Active
- IC50 [23]: 8900 nM
- IC50 [24]: > 30000 nM
- IC50 [25]: > 30000 nM
- Activity [26]: Non-toxic
- Activity [27]: Non-toxic
- Activity [28]: Non-toxic
